According to ChEMBL document CHEMBL4651402, “Screening of ~5500 FDA-approved drugs and clinical candidates for anti-SARS-CoV-2 activity” (2021):
pIC50: −log10 of the molar value.

System: SARS-CoV-2
Assay: microbe, parasite or virus in culture
Conditions: Severe acute respiratory syndrome coronavirus 2, Vero C1008, 48 h; for IC50: read-out: pIC50 (converted)

Structure (SMILES)	pIC50	IC50 [µM]
CN1C(=O)[C@@H](NC(=O)c2n[nH]c(Cc3ccccc3)n2)COc2ccccc21 [GSK2982772]	< 4.70	> 20
CC(C)c1noc(N2CCC(COc3ccc(-c4ccc(S(C)(=O)=O)cc4)nc3)CC2)n1 [GSK-1292263]	< 4.70	> 20
CONC(=O)c1ccccc1Nc1cc(Nc2cc(C)nn2C(C)C)ncc1Cl [GSK-2256098]	< 4.70	> 20
Cc1c(Cn2c(C)nc3c(C(=O)O)cc(N4CCOCC4)cc32)cccc1C(F)(F)F [GSK-2636771]	< 4.70	> 20
COc1ccc(/C=C2\CCCN=C2c2cccnc2)c(OC)c1 [GTS-21]	< 4.70	> 20
COc1ccccc1O [GUAIACOL]	< 4.70	> 20
COc1ccccc1OCC(O)CO (stereo not drawn) [GUAIFENESIN]	< 4.70	> 20
N=C(N)N/N=C/c1c(Cl)cccc1Cl [GUANABENZ]	< 4.70	> 20
N=C(N)NCCN1CCCCCCC1 [GUANETHIDINE]	< 4.70	> 20
N=C(N)NC(=O)Cc1c(Cl)cccc1Cl [GUANFACINE]	< 4.70	> 20
N=C(N)N [GUANIDINE]	< 4.70	> 20
N=C(NO)N/N=C/c1c(Cl)cccc1Cl [GUANOXABENZ]	< 4.70	> 20
N=C(N)NCC1COc2ccccc2O1 (stereo not drawn) [GUANOXAN]	< 4.70	> 20
N=C(N)NCCCOc1ccccc1 [GUANOXYFEN]	< 4.70	> 20
C/C=C1\C(=O)C[C@H]2[C@@H]3CCC4=CC(=O)CC[C@]4(C)[C@H]3CC[C@]12C [GUGGULSTERONE]	< 4.70	> 20
N#CCC1CCN(c2nc(Nc3ccc(N4CCC(O)CC4)cc3)c3c(=O)[nH]ncc3n2)CC1 [GUSACITINIB]	< 4.70	> 20
Cc1cc(SCc2sc(-c3ccc(C(F)(F)F)cc3)nc2C)ccc1OCC(=O)O [GW501516]	< 4.70	> 20
Cc1nc(-c2ccc(C(F)(F)F)cc2)sc1C(=O)NCc1ccc(OC(C)(C)C(=O)O)cc1 [GW590735]	< 4.70	> 20
O=C(NCC1CCOCC1)c1cnc(Nc2ccc(Cl)cc2Cl)nc1C(F)(F)F [GW842166X]	< 4.70	> 20
CCC(=O)NS(=O)(=O)c1ccc(NC(=O)COc2ccc(Cl)cc2C(=O)c2cc(Cl)cc(C#N)c2)c(C)c1 [GW-695634]	< 4.70	> 20
O=C1CN=C(c2ccccc2)c2cc(Cl)ccc2N1CC(F)(F)F [HALAZEPAM]	< 4.70	> 20
CC1(C)O[C@@H]2C[C@H]3[C@@H]4CCC5=CC(=O)CC[C@]5(C)[C@@]4(F)[C@@H](O)C[C@]3(C)[C@]2(C(=O)CCl)O1 [HALCINONIDE]	< 4.70	> 20

Structure (SMILES)	pIC50	IC50 [µM]
O=C(CC1NCCCC1O)Cn1cnc2cc(Br)c(Cl)cc2c1=O (stereo not drawn) [HALOFUGINONE]	< 4.70	> 20
CCCCCCCCCC(=O)OC1(c2ccc(Cl)cc2)CCN(CCCC(=O)c2ccc(F)cc2)CC1 [HALOPERIDOL DECANOATE]	< 4.70	> 20
O=C(CCCN1CCC(O)(c2ccc(Cl)cc2)CC1)c1ccc(F)cc1 [HALOPERIDOL]	< 4.70	> 20
Clc1cc(Cl)c(OCC#CI)cc1Cl [HALOPROGIN]	< 4.70	> 20
COc1ccc2c3c([nH]c2c1)C(C)=NCC3 [HARMALINE]	< 4.70	> 20
Cc1nccc2c1[nH]c1ccccc12 [HARMAN]	< 4.70	> 20
COc1ccc2c(c1)[nH]c1c(C)nccc12 [HARMINE]	< 4.70	> 20
CO[C@H](C)[C@](O)(C(=O)OCC1=CCN2CC[C@H](O)[C@@H]12)C(C)C [HELIOTRINE]	< 4.70	> 20
Oc1cc2c(cc1O)[C@@H]1c3ccc(O)c(O)c3OC[C@]1(O)C2 [HEMATOXYLIN]	< 4.70	> 20
C[N+]1(C)CCOC(O)(c2ccc(-c3ccc(C4(O)C[N+](C)(C)CCO4)cc3)cc2)C1 (stereo not drawn) [HEMICHOLINIUM-3]	< 4.70	> 20
CC(N)CCCC(C)(C)O (stereo not drawn) [HEPTAMINOL]	< 4.70	> 20
COc1ccc([C@@H]2CC(=O)c3c(O)cc(O)cc3O2)cc1O [HESPERETIN]	< 4.70	> 20
Oc1c(Cl)cc(Cl)c(Cl)c1Cc1c(O)c(Cl)cc(Cl)c1Cl [HEXACHLOROPHENE]	< 4.70	> 20
CC(=O)NCCCCCCNC(C)=O [HEXAMETHYLENEBISACETAMIDE]	< 4.70	> 20
CC[C@H](c1ccc(O)cc1)[C@@H](CC)c1ccc(O)cc1 [HEXESTROL]	< 4.70	> 20
CN1C(=O)NC(=O)C(C)(C2=CCCCC2)C1=O (stereo not drawn) [HEXOBARBITAL]	< 4.70	> 20
C[N+]1(C)CCN(CC(O)(c2ccccc2)C2CCCCC2)CC1 (stereo not drawn) [HEXOCYCLIUM]	< 4.70	> 20
Oc1ccc(C(O)CNCCCCCCNCC(O)c2ccc(O)c(O)c2)cc1O (stereo not drawn) [HEXOPRENALINE]	< 4.70	> 20
CC(CNC1CCCCC1)OC(=O)c1ccccc1 (stereo not drawn) [HEXYLCAINE]	< 4.70	> 20
CC(O)CC(C)(C)O (stereo not drawn) [HEXYLENE GLYCOL]	< 4.70	> 20
CCCCCCc1ccc(O)cc1O [HEXYLRESORCINOL]	< 4.70	> 20
O=C(O)CNC(=O)c1ccccc1 [HIPPURIC ACID]	< 4.70	> 20

Structure (SMILES)	pIC50	IC50 [µM]
NCCc1c[nH]cn1 [HISTAMINE]	< 4.70	> 20
COc1ccc(S(=O)(=O)N(C(C)=O)c2ccccc2/C=C/c2cc[n+]([O-])cc2)cc1 [HMN-214]	< 4.70	> 20
CC[n+]1c(-c2ccccc2)c2cc(N)ccc2c2ccc(N)cc21 [HOMIDIUM]	< 4.70	> 20
CC1CC(OC(=O)c2ccccc2O)CC(C)(C)C1 (stereo not drawn) [HOMOSALATE]	< 4.70	> 20
CN(C)CCc1ccc(O)cc1 [HORDENINE]	< 4.70	> 20
C/C=C1\[C@H]2C=C(C)C[C@]1(N)c1ccc(=O)[nH]c1C2 [HUPERZINE A]	< 4.70	> 20
CCN(CC)CCNc1ccc(CO)c2sc3ccccc3c(=O)c12 [HYCANTHONE]	< 4.70	> 20
COc1ccc2c(c1OC)C(=O)O[C@@H]2[C@H]1c2cc3c(cc2CCN1C)OCO3 [HYDRASTINE]	< 4.70	> 20
CN1CCc2cc3c(cc2C1O)OCO3 (stereo not drawn) [HYDRASTININE]	< 4.70	> 20
NS(=O)(=O)c1cc2c(cc1Cl)NCNS2(=O)=O [HYDROCHLOROTHIAZIDE]	< 4.70	> 20
COc1ccc2c3c1O[C@H]1C(=O)CC[C@H]4[C@@H](C2)N(C)CC[C@]314 [HYDROCODONE]	< 4.70	> 20
CC(=O)OCC(=O)[C@@]1(O)CC[C@H]2[C@@H]3CCC4=CC(=O)CC[C@]4(C)[C@H]3[C@@H](O)C[C@@]21C [HYDROCORTISONE ACETATE]	< 4.70	> 20
C[C@]12CCC(=O)C=C1CC[C@@H]1[C@@H]2[C@@H](O)C[C@@]2(C)[C@H]1CC[C@]2(O)C(=O)CO [HYDROCORTISONE]	< 4.70	> 20
COc1c2c(cc3c1OCO3)CCN(C)C2 [HYDROCOTARNINE]	< 4.70	> 20
NS(=O)(=O)c1cc2c(cc1C(F)(F)F)NCNS2(=O)=O [HYDROFLUMETHIAZIDE]	< 4.70	> 20
Oc1ccc(O)cc1 [HYDROQUINONE]	< 4.70	> 20
CC(N)Cc1ccc(O)cc1 (stereo not drawn) [HYDROXYAMPHETAMINE]	< 4.70	> 20
C[C@]12CCC(=O)C[C@H]1CC[C@@H]1[C@@H]2CC[C@]2(C)[C@@H](C(=O)COC(=O)CCC(=O)O)CC[C@@H]12 [HYDROXYDIONE SUCCINIC ACID]	< 4.70	> 20
CC(C)(O)C(=O)Nc1ccc([N+](=O)[O-])c(C(F)(F)F)c1 [HYDROXYFLUTAMIDE]	< 4.70	> 20
CCC(O)(COC(N)=O)c1ccccc1 (stereo not drawn) [HYDROXYPHENAMATE]	< 4.70	> 20
